Test results: patent US20030139368A1, “Antithrombotic and/or anti-inflammatory composition combining purine activity and NSAID activity” (priority 2000, published 2003)

How the values were obtained:
gastric mucosa = assay: Gastric toxicity, macroscopic and histologic observation of the stomach; type: in vivo; conditions: 100 mg/kg by gavage, fasted rats, 3 hours
Protocol: This test was performed on Sprague Dawley rats (IFFA CREDO, l'Arbresle, France). The rats were in a fasting state the evening before the experiment (but drinking water was available ad libitum). […] Three hours later, the rats were sacrificed by a lethal dose of pentobarbital. The stomach was removed, opened along the greater curvature and rinsed with water. The gastric mucosa was photographed and digitized using a Macintosh G3 computer equipped with a program (NIH, USA) and a video card (Scion, USA). The stomach was fixed with buffered formalin and then processed with the conventional histological techniques for paraffin inclusion. The sections (5 μm) were then stained with hematoxylin-eosin-safranin.
Two observations were performed: macroscopic (after the stomach was collected, under the microscope) and histologic.

male mice = assay: Anti-inflammatory effect: carrageenan-induced inflammation in air pocket, leukocyte count in exudate; type: in vivo; conditions: for Number of leukocytes: 100 mg/kg/day by gastric gavage on days 3, 4, 5, exudate 4 hours after carrageenan, controls 9.57 ± 0.48; for % inhibition: 100 mg/kg/day by gastric gavage, versus controls
Protocol: The test was performed on male mice weighing 20 g. This protocol lasted 5 days. On day 1, we injected 3 cm^3 of air in the dorsal part via the subcutaneous route. The resultant air pockets were reinflated on days 2, 3 and 4 with 1 cm^3 of air. […] We induced inflammation by injection of 1 ml of a 2% (weight/volume) suspension of carrageenan in PBS buffer into the air pocket. After 4 hours, the pockets were washed with 2 ml of PBS and the exudates were collected. Aliquot parts were diluted to 1:1 with a 0.01% solution of methylene blue in a PBS buffer. We then performed counting of the cells (principally neutrophils) whose accumulation was induced by the inflammation.

rat platelets = assay: Aggregation of rat platelets (platelet rich plasma) stimulated by ADP, aggregometer; type: cell-based; conditions: for aggregation: without AMP 80%
Protocol: Blood was collected on a citrate buffer from rats that had not received any treatment or from humans who had not received any treatment during the two weeks preceding collection of the blood sample. Platelet rich plasma was prepared by centrifugation using known methods. Measurements were performed using an aggregometer marketed under the name “Chrono-log”. The measurements were processed and digitized using an “MP30 Biopac” data acquisition system.

human platelets = assay: Response of human platelets stimulated by collagen; type: cell-based; conditions: collagen 0.19 mg/ml; substance 0.6 mM
Protocol: Platelet rich plasma was prepared by centrifugation using known methods.
Measurements were performed using an aggregometer marketed under the name “Chrono-log”. The measurements were processed and digitized using an “MP30 Biopac” data acquisition system.
We studied the response of human platelets stimulated by collagen (0.19 mg/ml, Biodata). Two parameters were measured: the latency time (elapsed time between bringing the platelets into contact with collagen and the beginning of aggregation) and the maximum amplitude of aggregation.

Structure (SMILES): O=C(Nc1ncnc2c1ncn2[C@@H]1O[C@H](CO)[C@@H](O)[C@H]1O)c1ccccc1O [Example 3, adenosine N-salicylyl]
- damage to the gastric wall (macroscopic and histologic) (gastric mucosa): did not cause damage to the gastric wall
- Number of leukocytes (male mice): 3.80 ± 0.80 millions/ml
- % inhibition (male mice): 60%

Structure (SMILES): Nc1ncnc2c1ncn2[C@@H]1O[C@H](CO)[C@@H](O)[C@H]1O [adenosine]
- aggregation compared with AMP (5 mM) (rat platelets; ADP 20 μM, adenosine 4 mM in place of AMP 5 mM): Comparable results

Structure (SMILES): Nc1ncnc2c1ncn2[C@@H]1O[C@H](COP(=O)(O)O)[C@@H](O)[C@H]1O [AMP, (5′-O-phosphate)adenosine]
- latency time multiplied by (factor) (human platelets): circa 1.5
- maximum response (maximum amplitude of aggregation) to collagen (human platelets): not modified
- aggregation (rat platelets; ADP 20 μM in the presence of 2.5 mM AMP): 40%
- aggregation (rat platelets; ADP 20 μM in the presence of 5.0 mM AMP): 20%
- effect on aggregation already induced (rat platelets; ADP 20 μM, AMP 10 mM added 30 seconds later): immediate disaggregation

Structure (SMILES): O=C([O-])c1ccccc1O.[Na+] [sodium salicylate]
- inhibition of platelet aggregation (rat platelets; sodium salicylate 7.5 mM added to plasma, then ADP 20 μM): No significant inhibition

Structure (SMILES): CC(=O)Oc1ccccc1C(=O)O [aspirin, acetylsalicylic acid]
- Number of leukocytes (male mice): 6.40 ± 0.77 millions/ml
- % inhibition (male mice): 33%
